Experimental data from ChEMBL document CHEMBL5137081, “N-Heterocyclic 3-Pyridyl Carboxamide Inhibitors of DHODH for the Treatment of Acute Myelogenous Leukemia” (J Med Chem, 2022).
In brackets after ≈: the same amount, converted by molar mass.

Key:
[1] = molecular target: Cytochrome P450 2C9 (Homo sapiens, UniProt P11712); experiment: Inhibition of CYP2C9 in human liver microsomes incubated for 10 mins by LC-MS/MS analysis; format: ADME, Microsome
[2] = Metabolic stability in human liver microsome assessed as intrinsic clearance pretreated for 5 mins followed by NADPH addition and measured upto 60 mins by HPLC-MS/MS analysis; format: ADME; conditions: microsomes, 1.083 h, time < 65 min
[3] = Plasma protein binding in mouse assessed as free fraction at 1 uM by equilibrium dialysis based LC-MS/MS analysis; format: ADME, cell-free
[4] = Inhibition of monkey DHODH; set-up: species or system Macaca mulatta
[5] = Intrinsic clearance in monkey hepatocytes measured per 10^6 cells; format: ADME, cell-based, Macaca mulatta, Hepatocyte; conditions: rhesus monkey
[6] = Cmax in Sprague-Dawley rat at 10 mg/kg, po or 2 mg/kg, iv measured upto 24 hrs by LC-MS/MS analysis; format: ADME, organism-based; set-up: dose 10 mg/kg, time < 24 hrs, route po; conditions: in vivo
[7] = Half life in C57BL/6 mouse at 10 mg/kg, po or 2 mg/kg, iv measured upto 24 hrs by LC-MS/MS analysis; format: ADME, organism-based; conditions: in vivo
[8] = Plasma protein binding in human assessed as free fraction at 1 uM by equilibrium dialysis based LC-MS/MS analysis; format: ADME, cell-free
[9] = Volume of distribution at steady state in Sprague-Dawley rat at 10 mg/kg, po or 2 mg/kg, iv measured upto 24 hrs by LC-MS/MS analysis; format: ADME, organism-based; conditions: in vivo
[10] = Metabolic stability in mouse liver microsome assessed as intrinsic clearance pretreated for 5 mins followed by NADPH addition and measured upto 60 mins by HPLC-MS/MS analysis; format: ADME; conditions: liver microsomes, time < 65 min, read-out: CLH
[11] = Inhibition of dog DHODH; set-up: species or system Canis lupus familiaris
[12] = Intrinsic clearance in rat hepatocytes measured per 10^6 cells; format: ADME, cell-based, Hepatocyte
[13] = molecular target: T1, Dihydroorotate dehydrogenase (quinone), mitochondrial (Homo sapiens, UniProt Q02127)
T1 sequence (Q02127 whole entry): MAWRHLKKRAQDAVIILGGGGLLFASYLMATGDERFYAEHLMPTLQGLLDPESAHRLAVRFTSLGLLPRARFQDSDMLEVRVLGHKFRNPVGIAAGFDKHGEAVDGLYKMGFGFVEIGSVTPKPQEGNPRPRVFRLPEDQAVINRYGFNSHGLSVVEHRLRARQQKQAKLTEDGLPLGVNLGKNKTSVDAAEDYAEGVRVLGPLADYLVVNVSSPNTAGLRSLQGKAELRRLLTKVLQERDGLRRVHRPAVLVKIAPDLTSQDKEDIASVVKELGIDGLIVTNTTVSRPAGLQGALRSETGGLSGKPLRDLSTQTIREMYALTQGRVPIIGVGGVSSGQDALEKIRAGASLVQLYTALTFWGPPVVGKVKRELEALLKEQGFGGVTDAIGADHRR
Description: Binding affinity to His fused human DHODH expressed in Escherichia coli assessed as dissociation half life by surface plasmon resonance assay

[14] = molecular target: Voltage-gated inwardly rectifying potassium channel KCNH2 (Homo sapiens, UniProt Q12809); experiment: Inhibition of hERG expressed in HEK293 cells by radioligand binding assay; format: toxicity, cell-based
Voltage-gated inwardly rectifying potassium channel KCNH2, sequence (Q12809 whole entry): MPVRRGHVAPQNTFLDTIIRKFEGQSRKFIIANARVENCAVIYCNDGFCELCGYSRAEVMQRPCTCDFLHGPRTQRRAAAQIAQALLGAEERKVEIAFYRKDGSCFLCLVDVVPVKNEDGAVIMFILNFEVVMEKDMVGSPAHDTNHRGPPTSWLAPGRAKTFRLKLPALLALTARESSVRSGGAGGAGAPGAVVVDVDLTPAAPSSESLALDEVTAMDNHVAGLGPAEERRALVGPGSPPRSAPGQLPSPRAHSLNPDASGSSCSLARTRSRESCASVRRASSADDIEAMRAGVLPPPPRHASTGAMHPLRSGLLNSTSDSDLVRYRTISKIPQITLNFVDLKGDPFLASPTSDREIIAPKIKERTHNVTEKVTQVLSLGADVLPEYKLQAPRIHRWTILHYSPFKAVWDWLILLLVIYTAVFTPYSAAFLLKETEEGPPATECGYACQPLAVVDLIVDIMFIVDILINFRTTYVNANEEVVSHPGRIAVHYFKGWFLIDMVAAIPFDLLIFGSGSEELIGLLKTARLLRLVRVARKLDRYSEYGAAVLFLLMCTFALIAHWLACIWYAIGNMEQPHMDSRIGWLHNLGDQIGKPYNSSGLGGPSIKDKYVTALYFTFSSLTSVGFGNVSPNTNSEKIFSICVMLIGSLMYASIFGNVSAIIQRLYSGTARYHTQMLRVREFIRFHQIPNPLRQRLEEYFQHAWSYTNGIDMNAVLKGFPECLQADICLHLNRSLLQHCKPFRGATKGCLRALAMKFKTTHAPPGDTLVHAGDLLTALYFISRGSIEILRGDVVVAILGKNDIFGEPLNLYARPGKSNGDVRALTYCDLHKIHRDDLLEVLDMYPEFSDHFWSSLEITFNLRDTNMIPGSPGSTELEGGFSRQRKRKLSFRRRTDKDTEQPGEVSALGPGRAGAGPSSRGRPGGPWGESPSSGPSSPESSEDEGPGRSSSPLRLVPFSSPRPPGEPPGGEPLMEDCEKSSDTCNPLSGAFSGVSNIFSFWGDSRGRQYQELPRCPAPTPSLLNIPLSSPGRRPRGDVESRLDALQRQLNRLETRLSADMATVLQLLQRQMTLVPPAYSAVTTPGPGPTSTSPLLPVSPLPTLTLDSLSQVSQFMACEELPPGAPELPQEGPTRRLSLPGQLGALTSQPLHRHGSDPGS

[15] = Intrinsic clearance in dog hepatocytes measured per 10^6 cells; format: ADME, cell-based, Canis lupus familiaris, Hepatocyte
[16] = Stability in human hepatocytes assessed as intrinsic clearance measured per 10^6 cells incubated upto 120 mins by LC-MS/MS analysis; format: ADME, cell-based, Hepatocyte; conditions: 2 h
[17] = Intrinsic clearance in mouse hepatocytes measured per 10^6 cells; format: ADME, cell-based, Hepatocyte
[18] = Cmax in C57BL/6 mouse at 10 mg/kg, po or 2 mg/kg, iv measured upto 24 hrs by LC-MS/MS analysis; format: ADME, organism-based; set-up: time < 24 hrs, dose 10 mg/kg, route po; conditions: in vivo
[19] = Oral bioavailability in C57BL/6 mouse at 10 mg/kg measured upto 24 hrs by LC-MS/MS analysis; format: ADME, organism-based; conditions: in vivo
[20] = molecular target: Dihydroorotate dehydrogenase (quinone), mitochondrial (Mus musculus, UniProt O35435); experiment: Inhibition of mouse DHODH
Dihydroorotate dehydrogenase (quinone), mitochondrial (Mus musculus, UniProt O35435), sequence (O35435 whole entry): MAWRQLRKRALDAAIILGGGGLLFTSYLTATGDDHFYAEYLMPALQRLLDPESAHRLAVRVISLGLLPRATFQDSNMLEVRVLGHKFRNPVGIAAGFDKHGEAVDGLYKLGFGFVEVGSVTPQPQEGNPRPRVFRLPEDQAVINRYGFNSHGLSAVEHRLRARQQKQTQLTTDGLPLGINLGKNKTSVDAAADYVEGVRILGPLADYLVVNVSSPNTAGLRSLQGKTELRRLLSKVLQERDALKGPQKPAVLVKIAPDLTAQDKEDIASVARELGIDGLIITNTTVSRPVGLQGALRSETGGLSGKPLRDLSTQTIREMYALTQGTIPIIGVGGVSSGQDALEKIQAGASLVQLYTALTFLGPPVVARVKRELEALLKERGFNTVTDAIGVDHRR

[21] = Oral bioavailability in Sprague-Dawley rat at 10 mg/kg measured upto 24 hrs by LC-MS/MS analysis; format: ADME, organism-based; conditions: in vivo
[22] = test system: THP-1; experiment: Antiproliferative activity against human THP-1 cells assessed as reduction in cell viability measured after 72 hrs; format: functional, cell-based; conditions: THP-1, 72 h
[23] = Metabolic stability in dog liver microsome assessed as intrinsic clearance pretreated for 5 mins followed by NADPH addition and measured upto 60 mins by HPLC-MS/MS analysis; format: ADME, Canis lupus familiaris; conditions: liver microsomes, time < 65 min, read-out: CLH
[24] = molecular target: T1, Dihydroorotate dehydrogenase (quinone), mitochondrial; experiment: Binding affinity to His fused human DHODH expressed in Escherichia coli by surface plasmon resonance assay
[25] = molecular target: T1, Dihydroorotate dehydrogenase (quinone), mitochondrial; experiment: Inhibition of His fused human DHODH expressed in Escherichia coli using DHO as substrate by DCIP absorbance based colorimetry assay
[26] = AUC(0 to infinity) in Sprague-Dawley rat at 10 mg/kg, po or 2 mg/kg, iv measured upto 24 hrs by LC-MS/MS analysis; format: ADME, organism-based; set-up: dose 10 mg/kg, time < 24 hrs, route po; conditions: in vivo
[27] = Plasma protein binding in rat assessed as free fraction at 1 uM by equilibrium dialysis based LC-MS/MS analysis; format: ADME, cell-free
[28] = molecular target: Dihydroorotate dehydrogenase (quinone), mitochondrial (Rattus norvegicus, UniProt Q63707); experiment: Inhibition of rat DHODH
Dihydroorotate dehydrogenase (quinone), mitochondrial (Rattus norvegicus, UniProt Q63707), sequence (Q63707 whole entry): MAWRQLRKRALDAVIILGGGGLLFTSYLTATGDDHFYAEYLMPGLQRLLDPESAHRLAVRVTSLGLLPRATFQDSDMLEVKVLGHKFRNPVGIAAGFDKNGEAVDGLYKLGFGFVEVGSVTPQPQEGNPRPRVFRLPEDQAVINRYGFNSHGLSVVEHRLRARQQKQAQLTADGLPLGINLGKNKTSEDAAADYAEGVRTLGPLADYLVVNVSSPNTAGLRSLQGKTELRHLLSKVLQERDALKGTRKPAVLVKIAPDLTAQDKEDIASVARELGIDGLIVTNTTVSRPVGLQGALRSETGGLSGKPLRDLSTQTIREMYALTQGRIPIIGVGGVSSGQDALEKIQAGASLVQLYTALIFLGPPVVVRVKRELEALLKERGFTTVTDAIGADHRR

[29] = Metabolic stability in monkey liver microsome assessed as intrinsic clearance pretreated for 5 mins followed by NADPH addition and measured upto 60 mins by HPLC-MS/MS analysis; format: ADME, Macaca mulatta; conditions: rhesus monkey, liver microsomes; time < 65 min; read-out: CLH
[30] = Plasma protein binding in dog assessed as free fraction at 1 uM by equilibrium dialysis based LC-MS/MS analysis; format: ADME, cell-free, Canis lupus familiaris
[31] = Solubility of compound at pH 7 by HPLC analysis; format: physicochemical; conditions: buffer
[32] = molecular target: Cytochrome P450 2C19 (Homo sapiens, UniProt P33261); experiment: Inhibition of CYP2C19 in human liver microsomes incubated for 10 mins by LC-MS/MS analysis; format: ADME, Microsome
Cytochrome P450 2C19, sequence (P33261 whole entry): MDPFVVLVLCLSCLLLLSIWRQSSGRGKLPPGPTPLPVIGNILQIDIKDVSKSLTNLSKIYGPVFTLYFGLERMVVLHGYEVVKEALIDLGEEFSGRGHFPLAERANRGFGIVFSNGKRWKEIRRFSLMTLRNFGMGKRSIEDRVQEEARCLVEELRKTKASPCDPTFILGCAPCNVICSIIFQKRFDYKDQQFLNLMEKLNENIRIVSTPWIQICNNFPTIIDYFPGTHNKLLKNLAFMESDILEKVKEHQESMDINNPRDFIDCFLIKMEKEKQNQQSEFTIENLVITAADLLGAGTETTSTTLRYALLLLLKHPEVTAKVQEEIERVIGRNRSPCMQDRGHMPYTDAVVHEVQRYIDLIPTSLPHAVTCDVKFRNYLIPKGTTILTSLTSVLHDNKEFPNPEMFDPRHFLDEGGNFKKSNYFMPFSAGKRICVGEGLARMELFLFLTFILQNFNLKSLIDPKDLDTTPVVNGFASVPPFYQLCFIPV

[33] = Tmax in C57BL/6 mouse at 10 mg/kg, po or 2 mg/kg, iv measured upto 24 hrs by LC-MS/MS analysis; format: ADME, organism-based; conditions: in vivo
[34] = Lipophilicity, logD of compound at pH 7.4; format: physicochemical; conditions: buffer
[35] = Metabolic stability in rat liver microsome assessed as intrinsic clearance pretreated for 5 mins followed by NADPH addition and measured upto 60 mins by HPLC-MS/MS analysis; format: ADME; conditions: liver microsomes, time < 65 min, read-out: CLH
[36] = molecular target: T2, Cytochrome P450 2C8 (Homo sapiens, UniProt P10632); experiment: Inhibition of CYP2C8 in human liver microsomes incubated for 10 mins by LC-MS/MS analysis; format: ADME, Microsome
T2 sequence (P10632 whole entry): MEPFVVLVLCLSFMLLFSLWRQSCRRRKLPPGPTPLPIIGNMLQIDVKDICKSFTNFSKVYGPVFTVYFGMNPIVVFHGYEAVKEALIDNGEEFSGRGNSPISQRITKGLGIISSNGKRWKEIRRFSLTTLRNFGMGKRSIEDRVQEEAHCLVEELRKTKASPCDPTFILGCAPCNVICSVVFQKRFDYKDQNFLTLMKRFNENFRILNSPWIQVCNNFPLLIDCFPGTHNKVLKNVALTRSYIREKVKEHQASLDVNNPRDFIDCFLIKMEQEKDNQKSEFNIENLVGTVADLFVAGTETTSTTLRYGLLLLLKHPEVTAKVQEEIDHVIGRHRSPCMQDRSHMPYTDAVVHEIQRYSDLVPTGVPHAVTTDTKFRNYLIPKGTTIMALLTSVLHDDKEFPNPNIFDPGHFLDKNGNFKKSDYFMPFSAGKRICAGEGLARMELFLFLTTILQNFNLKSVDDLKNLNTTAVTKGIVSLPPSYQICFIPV

[37] = Tmax in Sprague-Dawley rat at 10 mg/kg, po or 2 mg/kg, iv measured upto 24 hrs by LC-MS/MS analysis; format: ADME, organism-based; conditions: in vivo
[38] = Volume of distribution at steady state in C57BL/6 mouse at 10 mg/kg, po or 2 mg/kg, iv measured upto 24 hrs by LC-MS/MS analysis; format: ADME, organism-based; conditions: in vivo

Cytochrome P450 2C9, sequence (P11712 whole entry): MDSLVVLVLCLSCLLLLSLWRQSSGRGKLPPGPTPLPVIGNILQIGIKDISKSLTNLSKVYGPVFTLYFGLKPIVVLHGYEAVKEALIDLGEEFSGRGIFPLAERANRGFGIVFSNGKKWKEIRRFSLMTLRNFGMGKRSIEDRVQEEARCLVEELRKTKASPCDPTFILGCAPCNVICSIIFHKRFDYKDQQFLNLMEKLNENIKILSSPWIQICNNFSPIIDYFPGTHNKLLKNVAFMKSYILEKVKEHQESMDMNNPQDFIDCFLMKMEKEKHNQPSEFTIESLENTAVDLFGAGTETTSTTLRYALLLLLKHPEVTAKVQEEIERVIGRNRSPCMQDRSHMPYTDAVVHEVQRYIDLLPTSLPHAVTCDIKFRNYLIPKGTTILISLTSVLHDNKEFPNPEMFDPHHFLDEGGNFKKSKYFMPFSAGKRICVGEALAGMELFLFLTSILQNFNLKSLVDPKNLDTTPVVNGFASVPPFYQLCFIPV

| IC50 [1] | CLH [2] | fraction unbound at 1 µM [3] | IC50 [4] | CLH [5] | Cmax [6] | half-life [7] | fraction unbound at 1 µM [8] | Vdss [9] | CLint scaled [10] | IC50 [11] | CLH [12] | T1/2 [13] | CLH [15] | CLH [16] | CLH [17] | Cmax [18] | bioavailability [19] | IC50 [20] | SMILES | IC50 [14] | also measured |
| --- | --- | --- | --- | --- | --- | --- | --- | --- | --- | --- | --- | --- | --- | --- | --- | --- | --- | --- | --- | --- | --- |
| > 10000 nM | 8 µL/min/mg | 0.23 | 1.6 nM | 4 µL/min/1e6 cells | 1.71 µg/mL | 2.3 h | 0.38 | 2.3 L/kg | 0.342 L/h/kg | 8.5 nM | 5.2 µL/min/1e6 cells | 0.5 h | 8.3 µL/min/1e6 cells | < 1.9 µL/min/1e6 cells | 5.7 µL/min/1e6 cells | 4.05 µg/mL | 103% | 140 nM | CCn1c(CO)nn(-c2nc(O[C@@H](C)C(F)(F)F)c(C(=O)Nc3c(C)ccnc3Cl)cc2F)c1=O | > 10000 nM | F ([21]; po, 10 mg/kg, 24 h): 167%; IC50 [22]: 5 nM; CLint scaled [23]: 0.498 L/h/kg; Kd [24]: 3.3 nM; IC50 [25]: 1.1 nM; AUC(0-inf) [26]: 9.21 µg·h/mL; fraction unbound at 1 µM [27]: 0.28; IC50 [28]: 1580 nM; CLint scaled [29]: 0.24 L/h/kg; fraction unbound at 1 µM [30]: 0.33; solubility [31]: > 400 µM; IC50 [32]: > 10000 nM; Tmax [33]: 0.42 h; logD [34]: 2.7; CLint scaled [35]: 0.312 L/h/kg; IC50 [36]: > 10000 nM; Tmax [37]: 1.7 h; Vdss [38]: 1.3 L/kg |
| > 10000 nM | < 7.7 µL/min/mg | 0.062 | 0.54 nM | 5.3 µL/min/1e6 cells | 2.19 µg/mL | 5 h | 0.063 | 2.2 L/kg | 0.33 L/h/kg | 4.2 nM | 6.2 µL/min/1e6 cells | 0.65 h | 86 µL/min/1e6 cells | 2.3 µL/min/1e6 cells | 5.5 µL/min/1e6 cells | 3.81 µg/mL | 110% | 10 nM | CCn1c(CO)nn(-c2nc(O[C@@H](C)C(F)(F)F)c(C(=O)Nc3c(C)cnc(OC)c3Cl)cc2F)c1=O | > 10000 nM | bioavailability ([21]; Sprague-Dawley): 106%; IC50 [22]: 1.4 nM; CLint scaled [23]: 5.16 L/h/kg; Kd [24]: 1.1 nM; IC50 [25]: 0.3 nM; AUC(0-inf) [26]: 23.8 µg·h/mL; fraction unbound at 1 µM [27]: 0.078; IC50 [28]: 130 nM; CLint scaled [29]: 0.318 L/h/kg; fraction unbound at 1 µM [30]: 0.042; solubility [31]: 5 µM (≈ 2.74 µg/mL); IC50 [32]: > 10000 nM; Tmax [33]: 1 h; logD [34]: 2.4; CLint scaled [35]: 0.372 L/h/kg; IC50 [36]: > 10000 nM; Tmax [37]: 4 h; Vdss [38]: 2.4 L/kg |
